Measured values as given in patent publication US6903052B2, “Nematicidal compositions and methods” (Divergence, Inc., priority 2002, dated 2005).

How the values were obtained:
[1] = system: root knot nematodes (Meloidogyne spp.); assay: Nematicidal activity against root knot nematodes, summary statement; assay type: cell-based; conditions: concentration of 0.1%
Method: Meloidogyne incognita and javanica were prepared from tomato roots. The roots were bleached and the debris was separated from the J2 larvae and eggs by filtration followed by sucrose density gradient centrifugation. Eggs were hatched over 4 days at 15° C. and the J2 larvae were collected by passage though a filter, followed by centrifugation.
Nematodes and emulsions were incubated with shaking at room temperature for 48 hours. The contents of each well were transferred to a small spot on individual NGM plates lacking bacteria. About 24 hours after the transfer to plates, worms on and off the inoculation spot were counted as not viable or viable, respectively. Worms were considered viable if they had crawled away from the inoculation spot, or if they were moving. Worms were considered non-viable if they remained at the inoculation spot.

[2] = system: C. elegans; assay: Nematicidal activity of emulsions made with Tween-20 (replacing Igepal CO 630) against C. elegans; assay type: cell-based, Caenorhabditis elegans; conditions: Tween-20 emulsion
Method: Some nematodes assayed as described in Example 9 lacked tolerance to emulsions made with the surfactant Igepal CO 630. For this reason some assays were repeated with Tween-20-based emulsions.
Briefly, 1 ml 1% stock solution emulsions were prepared by mixing 10 μl of fatty acid methyl ester with 20 μl of the surfactant Tween-20 in a 1.5 ml eppendorf tube. After careful mixing of fatty acid and Tween-20, 850 μl of ddH20 was added and mixed by gentle pipetting until a homogeneous solution was obtained. Finally, 120 μl of pure isopropanol was added and mixed by gentle pipetting. This stock solution was then used to produce various fatty acid methyl ester dilution emulsions in 24-well plate assays.

[3] = system: M. incognita; assay: Nematicidal activity of fatty acid methyl ester emulsions, spectrum (Example 8); assay type: cell-based, Meloidogyne incognita; conditions: M. incognita 2nd stage juveniles, scored at 48 hours
Method: Briefly, the indicated fatty acid emulsions were added and rapidly mixed by swirling. Nematode viability was scored by visual observation and motility assays 24 hours following addition of emulsions (48 hours for plant parasitic nematodes Meloidogyne and Heterodera species). The fatty acid emulsions tested were methyl esters of nonanoic (pelargonic) acid, ricinelaidic acid, ricinoleic acid, vernolic acid, linoleic acid, and oleic acid. […] Results shown are mean % values obtained from multiple independent experiments
The Caenorhabiditis elegans were mixed stage populations. Similar effects seen on several other free-living nematode species. The Parastrongyloides trichosuri (parasite of Australian bushtail possum) were dauer-like infective 3rd stage larva. Similar effects are also seen against free-living stages. The Meloidogyne incognita and Meloidogyne javanica (root knot nematode) were 2nd stage juveniles (dauer-like infective stage). The Heterodera glycines (soybean cyst nematode) were 2nd stage juveniles (dauer-like infective stage). Finally, the Pratylenchus scribneri (corn lesion nematode) were mixed stage populations.

## CCCCCCC(O)C/C=C\CCCCCCCC(=O)OC (stereo not drawn) [Ricinoleic Acid (C18-methyl ester), 12-hydroxy-cis-9-octadecenoic acid methyl ester]
[1]
  Nematicidal activity (in words): significant nematicidal activity
[2]; 0.001% solution
  % Worm Death (24 hr): 40%
[2]; 0.01% solution
  % Worm Death (24 hr): 100%
[2]; 0.1% solution
  % Worm Death (24 hr): 100%
[3]; 0.01% solution
  % Worm Death (24 hr): 83%
[3]; 0.1% solution
  % Worm Death (24 hr): 95%
